According to ChEMBL document CHEMBL5505958, “Optimization of sequence and chiral content enhances therapeutic potential of tilapia piscidin peptides” (Eur J Med Chem, 2024):
Active and inactive are the calls of the source.

Experiments:
[1] = system: Enterococcus faecalis; assay: Antibacterial activity against Enterococcus faecalis 10066 assessed as inhibition of bacterial growth incubated for 16 to 20 hrs; format: functional; details: time 16-20 hrs
[2] = system: Enterococcus faecium; assay: Antibacterial activity against Enterococcus faecium 10067 assessed as inhibition of bacterial growth incubated for 16 to 20 hrs; format: functional; details: time 16-20 hrs
[3] = system: Escherichia coli; assay: Bactericidal activity against Escherichia coli 10675 assessed as inhibition of bacterial growth incubated for 16 to 20 hrs; format: functional; details: time 16-20 hrs
[4] = system: Vibrio vulnificus; assay: Antibacterial activity against Vibrio vulnificus 204 assessed as inhibition of bacterial growth incubated for 16 to 20 hrs in presence of human serum; format: functional; details: time 16-20 hrs
[5] = system: Staphylococcus aureus; assay: Bactericidal activity against Staphylococcus aureus 10780 assessed as inhibition of bacterial growth incubated for 16 to 20 hrs; format: functional; details: time 16-20 hrs
[6] = system: Salmonella enterica; assay: Antibacterial activity against Salmonella enterica 15455 assessed as inhibition of bacterial growth incubated for 16 to 20 hrs in presence of human serum; format: functional; details: time 16-20 hrs
[7] = system: Salmonella typhimurium; assay: Antibacterial activity against Salmonella typhimurium DT104 assessed as inhibition of bacterial growth incubated for 16 to 20 hrs in presence of human serum; format: functional, Salmonella enterica subsp. enterica serovar Typhimurium; details: Salmonella enterica, time 16-20 hrs
[8] = system: Klebsiella pneumoniae; assay: Bactericidal activity against Klebsiella pneumoniae 10692 assessed as inhibition of bacterial growth incubated for 16 to 20 hrs; format: functional; details: time 16-20 hrs
[9] = system: Yersinia enterocolitica; assay: Bactericidal activity against Yersinia enterocolitica 13999 assessed as inhibition of bacterial growth incubated for 16 to 20 hrs; format: functional; details: time 16-20 hrs
[10] = system: Klebsiella pneumoniae; assay: Bactericidal activity against Klebsiella pneumoniae BAA 2473 assessed as inhibition of bacterial growth incubated for 16 to 20 hrs; format: functional; details: time 16-20 hrs
[11] = system: Klebsiella oxytoca; assay: Antibacterial activity against Klebsiella oxytoca 13985 assessed as inhibition of bacterial growth incubated for 16 to 20 hrs; format: functional; details: time 16-20 hrs
[12] = system: Salmonella enterica; assay: Bactericidal activity against Salmonella enterica 15455 assessed as inhibition of bacterial growth incubated for 16 to 20 hrs; format: functional; details: time 16-20 hrs
[13] = system: Escherichia coli; assay: Antibacterial activity against Escherichia coli 10675 assessed as inhibition of bacterial growth incubated for 16 to 20 hrs in presence of human serum; format: functional; details: time 16-20 hrs
[14] = system: Rhizopus arrhizus; assay: Fungicidal activity against Rhizopus oryzae 34550 assessed as inhibition of fungal growth incubated for 16 to 20 hrs in presence of human serum; format: functional; details: time 16-20 hrs
[15] = system: Acinetobacter baumannii; assay: Antibacterial activity against Acinetobacter baumannii 10591 assessed as inhibition of bacterial growth incubated for 16 to 20 hrs; format: functional; details: time 16-20 hrs
[16] = system: Staphylococcus haemolyticus; assay: Bactericidal activity against Staphylococcus haemolyticus 15237 assessed as inhibition of bacterial growth incubated for 16 to 20 hrs; format: functional; details: time 16-20 hrs
[17] = system: Klebsiella pneumoniae; assay: Bactericidal activity against Klebsiella pneumoniae TL 297 assessed as inhibition of bacterial growth incubated for 16 to 20 hrs in presence of human serum; format: functional; details: time 16-20 hrs
[18] = system: Enterococcus faecium; assay: Antibacterial activity against Enterococcus faecium 10067 assessed as inhibition of bacterial growth incubated for 16 to 20 hrs in presence of human serum; format: functional; details: time 16-20 hrs
[19] = system: Enterococcus faecium; assay: Bactericidal activity against Enterococcus faecium 10067 assessed as inhibition of bacterial growth incubated for 16 to 20 hrs; format: functional; details: time 16-20 hrs
[20] = system: Klebsiella oxytoca; assay: Bactericidal activity against Klebsiella oxytoca 13985 assessed as inhibition of bacterial growth incubated for 16 to 20 hrs in presence of human serum; format: functional; details: time 16-20 hrs
[21] = system: Klebsiella pneumoniae; assay: Antimicrobial activity against drug-resistant Klebsiella pneumoniae BAA 2473 infected in C57BL/6 mouse assessed as reduction in bacterial load at 5 mg/kg, po administered for 2 hrs and measured at 24 hrs; format: functional, organism-based; details: time 26.0 hrs
[22] = system: Klebsiella oxytoca; assay: Antibacterial activity against Klebsiella oxytoca 13985 assessed as inhibition of bacterial growth incubated for 16 to 20 hrs in presence of human serum; format: functional; details: time 16-20 hrs
[23] = system: Escherichia coli; assay: Antibacterial activity against Escherichia coli 10675 assessed as inhibition of bacterial growth incubated for 16 to 20 hrs; format: functional; details: time 16-20 hrs
[24] = system: Enterococcus faecium; assay: Bactericidal activity against Enterococcus faecium 10067 assessed as inhibition of bacterial growth incubated for 16 to 20 hrs in presence of human serum; format: functional; details: time 16-20 hrs
[25] = system: Pseudomonas aeruginosa; assay: Bactericidal activity against Pseudomonas aeruginosa 19660 assessed as inhibition of bacterial growth incubated for 16 to 20 hrs in presence of human serum; format: functional; details: time 16-20 hrs
[26] = system: Enterococcus faecalis; assay: Bactericidal activity against Enterococcus faecalis 10066 assessed as inhibition of bacterial growth incubated for 16 to 20 hrs; format: functional; details: time 16-20 hrs
[27] = system: Vibrio vulnificus; assay: Antibacterial activity against Vibrio vulnificus 204 assessed as inhibition of bacterial growth incubated for 16 to 20 hrs; format: functional; details: time 16-20 hrs
[28] = system: Salmonella enterica; assay: Antibacterial activity against Salmonella enterica 15455 assessed as inhibition of bacterial growth incubated for 16 to 20 hrs; format: functional; details: time 16-20 hrs
[29] = system: Rhizopus arrhizus; assay: Fungicidal activity against Rhizopus oryzae 34550 assessed as inhibition of fungal growth incubated for 72 hrs; format: functional
[30] = system: Klebsiella pneumoniae; assay: Antibacterial activity against Klebsiella pneumoniae 10692 assessed as inhibition of bacterial growth incubated for 16 to 20 hrs; format: functional; details: time 16-20 hrs
[31] = system: Klebsiella aerogenes; assay: Antibacterial activity against Enterobacter aerogenes 15630 assessed as inhibition of bacterial growth incubated for 16 to 20 hrs; format: functional; details: time 16-20 hrs
[32] = system: Escherichia coli; assay: Bactericidal activity against Escherichia coli 10675 assessed as inhibition of bacterial growth incubated for 16 to 20 hrs in presence of human serum; format: functional; details: time 16-20 hrs
[33] = system: Yersinia enterocolitica; assay: Antibacterial activity against Yersinia enterocolitica 13999 assessed as inhibition of bacterial growth incubated for 16 to 20 hrs; format: functional; details: time 16-20 hrs
[34] = system: Salmonella enterica; assay: Bactericidal activity against Salmonella enterica 15455 assessed as inhibition of bacterial growth incubated for 16 to 20 hrs in presence of human serum; format: functional; details: time 16-20 hrs
[35] = system: Pseudomonas aeruginosa; assay: Antibacterial activity against Pseudomonas aeruginosa 19660 assessed as inhibition of bacterial growth incubated for 16 to 20 hrs in presence of human serum; format: functional; details: time 16-20 hrs
[36] = system: Acinetobacter baumannii; assay: Bactericidal activity against Acinetobacter baumannii 10591 assessed as inhibition of bacterial growth incubated for 16 to 20 hrs in presence of human serum; format: functional; details: time 16-20 hrs
[37] = system: Klebsiella oxytoca; assay: Bactericidal activity against Klebsiella oxytoca 13985 assessed as inhibition of bacterial growth incubated for 16 to 20 hrs; format: functional; details: time 16-20 hrs
[38] = system: Klebsiella pneumoniae; assay: Antibacterial activity against Klebsiella pneumoniae TL 297 assessed as inhibition of bacterial growth incubated for 16 to 20 hrs in presence of human serum; format: functional; details: time 16-20 hrs
[39] = system: Klebsiella pneumoniae; assay: Antibacterial activity against Klebsiella pneumoniae BAA 2473 assessed as inhibition of bacterial growth incubated for 16 to 20 hrs; format: functional; details: time 16-20 hrs
[40] = system: Staphylococcus haemolyticus; assay: Antibacterial activity against Staphylococcus haemolyticus 15237 assessed as inhibition of bacterial growth incubated for 16 to 20 hrs; format: functional; details: time 16-20 hrs
[41] = system: Salmonella typhimurium; assay: Bactericidal activity against Salmonella typhimurium DT104 assessed as inhibition of bacterial growth incubated for 16 to 20 hrs in presence of human serum; format: functional, Salmonella enterica subsp. enterica serovar Typhimurium; details: Salmonella enterica, time 16-20 hrs
[42] = system: Acinetobacter baumannii; assay: Bactericidal activity against Acinetobacter baumannii 10591 assessed as inhibition of bacterial growth incubated for 16 to 20 hrs; format: functional; details: time 16-20 hrs
[43] = system: Salmonella typhimurium; assay: Bactericidal activity against Salmonella typhimurium DT104 assessed as inhibition of bacterial growth incubated for 16 to 20 hrs; format: functional, Salmonella enterica subsp. enterica serovar Typhimurium; details: Salmonella enterica, time 16-20 hrs
[44] = system: Vibrio vulnificus; assay: Bactericidal activity against Vibrio vulnificus 204 assessed as inhibition of bacterial growth incubated for 16 to 20 hrs in presence of human serum; format: functional; details: time 16-20 hrs
[45] = system: Salmonella typhimurium; assay: Antibacterial activity against Salmonella typhimurium DT104 assessed as inhibition of bacterial growth incubated for 16 to 20 hrs; format: functional, Salmonella enterica subsp. enterica serovar Typhimurium; details: Salmonella enterica, time 16-20 hrs
[46] = system: Staphylococcus aureus; assay: Antibacterial activity against Staphylococcus aureus 10780 assessed as inhibition of bacterial growth incubated for 16 to 20 hrs; format: functional; details: time 16-20 hrs
[47] = system: Klebsiella aerogenes; assay: Bactericidal activity against Enterobacter aerogenes 15630 assessed as inhibition of bacterial growth incubated for 16 to 20 hrs; format: functional; details: time 16-20 hrs
[48] = system: Rhizopus arrhizus; assay: Antifungal activity against Rhizopus oryzae 34550 assessed as inhibition of fungal growth incubated for 16 to 20 hrs; format: functional; details: time 16-20 hrs
[49] = system: Vibrio vulnificus; assay: Bactericidal activity against Vibrio vulnificus 204 assessed as inhibition of bacterial growth incubated for 16 to 20 hrs; format: functional; details: time 16-20 hrs
[50] = system: Acinetobacter baumannii; assay: Antibacterial activity against Acinetobacter baumannii 10591 assessed as inhibition of bacterial growth incubated for 16 to 20 hrs in presence of human serum; format: functional; details: time 16-20 hrs

C[C@H]1c2cccc(O)c2C(=O)C2=C(O)[C@]3(O)C(=O)C(C(N)=O)=C(O)[C@@H](N(C)C)[C@@H]3[C@@H](O)[C@@H]21 [DOXYCYCLINE ANHYDROUS]
200 µM: MBC [37] | MBC [47]
inactive: Activity [21]
6.25 µM: MIC [6] | MIC [11] | MBC [19] | MIC [22] | MBC [25] | MBC [26] | MIC [35] | MBC [36] | MBC [43] | MIC [45]
0.39 µM: MIC [18]
100 µM: MBC [3] | MBC [8] | MBC [10] | MBC [20] | MBC [32]
> 100 µM: MBC [12] | MFC [29] | MBC [34] | MBC [41] | MIC [48]
< 1.56 µM: MIC [1] | MBC [9] | MBC [16] | MIC [40]
25 µM: MBC [17] | MIC [38]
50 µM: MIC [39]
3.13 µM: MIC [13] | MIC [23] | MIC [28] | MIC [30] | MIC [31] | MIC [33]
1.56 µM: MBC [42] | MIC [50]
0.2 µM: MIC [2] | MIC [46]
< 0.39 µM: MIC [4] | MIC [27] | MBC [44] | MBC [49]
12.5 µM: MBC [5] | MIC [7] | MFC [14] | MBC [24]
0.78 µM: MIC [15]
